{"source": "ChEMBL document CHEMBL1201862", "about": "“PubChem BioAssay data set” (2004)", "test_in_all_cases": "inhibition of tumour cell growth, NCI panel, 48 h", "key": {"786-0": {"system": "786-0"}, "A549": {"system": "A549"}, "ACHN": {"system": "ACHN"}, "CAKI-1": {"system": "CAKI-1"}, "CCRF-CEM": {"system": "CCRF-CEM"}, "COLO 205": {"system": "COLO 205"}, "DLD-1": {"system": "DLD-1"}, "DMS-114": {"system": "DMS-114"}, "DMS-273": {"system": "DMS-273"}, "EKVX": {"system": "EKVX"}, "HCT-116": {"system": "HCT-116"}, "HCT-15": {"system": "HCT-15"}, "HL-60": {"system": "HL-60"}, "HOP-18": {"system": "HOP-18"}, "HOP-62": {"system": "HOP-62"}, "HOP-92": {"system": "HOP-92"}, "HT-29": {"system": "HT-29"}, "IGROV-1": {"system": "IGROV-1"}, "K562": {"system": "K562"}, "KM-20L2": {"system": "KM-20L2"}, "KM12": {"system": "KM12"}, "LOX IMVI": {"system": "LOX IMVI"}, "LXFL 529": {"system": "LXFL 529"}, "M14": {"system": "M14"}, "M19-MEL": {"system": "M19-MEL"}, "MOLT-4": {"system": "MOLT-4"}, "Malme-3M": {"system": "Malme-3M"}, "NCI-H23": {"system": "NCI-H23"}, "NCI-H460": {"system": "NCI-H460"}, "NCI-H522": {"system": "NCI-H522"}, "OVCAR-3": {"system": "OVCAR-3"}, "OVCAR-4": {"system": "OVCAR-4"}, "OVCAR-5": {"system": "OVCAR-5"}, "OVCAR-8": {"system": "OVCAR-8"}, "RXF 393": {"system": "RXF 393"}, "RXF 631": {"system": "RXF 631"}, "SF-268": {"system": "SF-268"}, "SF-295": {"system": "SF-295"}, "SF-539": {"system": "SF-539"}, "SK-MEL-28": {"system": "SK-MEL-28"}, "SK-MEL-2": {"system": "SK-MEL-2"}, "SK-MEL-5": {"system": "SK-MEL-5"}, "SK-OV-3": {"system": "SK-OV-3"}, "SN12C": {"system": "SN12C"}, "SNB-19": {"system": "SNB-19"}, "SNB-75": {"system": "SNB-75"}, "SNB-78": {"system": "SNB-78"}, "SR": {"system": "SR"}, "SW-620": {"system": "SW-620"}, "TK-10": {"system": "TK-10"}, "U-251": {"system": "U-251"}, "UACC-257": {"system": "UACC-257"}, "UACC-62": {"system": "UACC-62"}, "UO-31": {"system": "UO-31"}, "XF498": {"system": "XF498"}}, "note": "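Grown in 96-well plates, cells were treated for 48 hours with each compound at five concentrations. Insufficient inhibition: endpoint recorded as highest concentration tested. GI50 is the concentration that inhibits growth by half.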 Active and inactive are the calls of the source. No stated cut-off is given here; in the data, active = GI50 up to about 1.1 µM and inactive = higher."}
{"smiles": "COC(OC)c1cccnc1C", "values": [{"measurement": "GI50", "setting": "786-0", "result": "> 100 µM (inactive)"}, {"measurement": "GI50", "setting": "A549", "result": "> 100 µM (inactive)"}, {"measurement": "GI50", "setting": "ACHN", "result": "> 100 µM (inactive)"}, {"measurement": "GI50", "setting": "CAKI-1", "result": "> 100 µM (inactive)"}, {"measurement": "GI50", "setting": "CCRF-CEM", "result": "> 100 µM (inactive)"}, {"measurement": "GI50", "setting": "COLO 205", "result": "> 100 µM (inactive)"}, {"measurement": "GI50", "setting": "DLD-1", "result": "> 100 µM (inactive)"}, {"measurement": "GI50", "setting": "DMS-114", "result": "> 100 µM (inactive)"}, {"measurement": "GI50", "setting": "DMS-273", "result": "> 100 µM (inactive)"}, {"measurement": "GI50", "setting": "EKVX", "result": "> 100 µM (inactive)"}, {"measurement": "GI50", "setting": "HCT-116", "result": "> 100 µM (inactive)"}, {"measurement": "GI50", "setting": "HCT-15", "result": "> 100", "unit": "µM"}, {"measurement": "GI50", "setting": "HL-60", "result": "> 100 µM (inactive)"}, {"measurement": "GI50", "setting": "HOP-18", "result": "> 100 µM (inactive)"}, {"measurement": "GI50", "setting": "HOP-62", "result": "> 100 µM (inactive)"}, {"measurement": "GI50", "setting": "HOP-92", "result": "> 100 µM (inactive)"}, {"measurement": "GI50", "setting": "HT-29", "result": "> 100 µM (inactive)"}, {"measurement": "GI50", "setting": "IGROV-1", "result": "> 100 µM (inactive)"}, {"measurement": "GI50", "setting": "K562", "result": "> 100 µM (inactive)"}, {"measurement": "GI50", "setting": "KM-20L2", "result": "> 100 µM (inactive)"}, {"measurement": "GI50", "setting": "KM12", "result": "> 100 µM (inactive)"}, {"measurement": "GI50", "setting": "LOX IMVI", "result": "> 100 µM (inactive)"}, {"measurement": "GI50", "setting": "LXFL 529", "result": "> 100 µM (inactive)"}, {"measurement": "GI50", "setting": "M14", "result": "> 100 µM (inactive)"}, {"measurement": "GI50", "setting": "M19-MEL", "result": "> 100 µM (inactive)"}, {"measurement": "GI50", "setting": "MOLT-4", "result": "> 100 µM (inactive)"}, {"measurement": "GI50", "setting": "Malme-3M", "result": "> 100 µM (inactive)"}, {"measurement": "GI50", "setting": "NCI-H23", "result": "> 100 µM (inactive)"}, {"measurement": "GI50", "setting": "NCI-H460", "result": "> 100 µM (inactive)"}, {"measurement": "GI50", "setting": "NCI-H522", "result": "> 100 µM (inactive)"}, {"measurement": "GI50", "setting": "OVCAR-3", "result": "> 100 µM (inactive)"}, {"measurement": "GI50", "setting": "OVCAR-4", "result": "> 100 µM (inactive)"}, {"measurement": "GI50", "setting": "OVCAR-5", "result": "> 100 µM (inactive)"}, {"measurement": "GI50", "setting": "OVCAR-8", "result": "> 100 µM (inactive)"}, {"measurement": "GI50", "setting": "RXF 393", "result": "> 100 µM (inactive)"}, {"measurement": "GI50", "setting": "RXF 631", "result": "> 100 µM (inactive)"}, {"measurement": "GI50", "setting": "SF-268", "result": "> 100 µM (inactive)"}, {"measurement": "GI50", "setting": "SF-295", "result": "> 100 µM (inactive)"}, {"measurement": "GI50", "setting": "SF-539", "result": "> 100 µM (inactive)"}, {"measurement": "GI50", "setting": "SK-MEL-28", "result": "> 100 µM (inactive)"}, {"measurement": "GI50", "setting": "SK-MEL-2", "result": "> 100 µM (inactive)"}, {"measurement": "GI50", "setting": "SK-MEL-5", "result": "> 100 µM (inactive)"}, {"measurement": "GI50", "setting": "SK-OV-3", "result": "> 100 µM (inactive)"}, {"measurement": "GI50", "setting": "SN12C", "result": "> 100 µM (inactive)"}, {"measurement": "GI50", "setting": "SNB-19", "result": "> 100 µM (inactive)"}, {"measurement": "GI50", "setting": "SNB-75", "result": "> 100 µM (inactive)"}, {"measurement": "GI50", "setting": "SNB-78", "result": "> 100 µM (inactive)"}, {"measurement": "GI50", "setting": "SR", "result": "> 100 µM (inactive)"}, {"measurement": "GI50", "setting": "SW-620", "result": "> 100 µM (inactive)"}, {"measurement": "GI50", "setting": "TK-10", "result": "> 100 µM (inactive)"}, {"measurement": "GI50", "setting": "U-251", "result": "> 100 µM (inactive)"}, {"measurement": "GI50", "setting": "UACC-257", "result": "> 100 µM (inactive)"}, {"measurement": "GI50", "setting": "UACC-62", "result": "> 100 µM (inactive)"}, {"measurement": "GI50", "setting": "UO-31", "result": "> 100 µM (inactive)"}, {"measurement": "GI50", "setting": "XF498", "result": "> 100 µM (inactive)"}]}
